Data from patent publication EP4786466A1, “QUINAZOLINE DERIVATIVE, SALT THEREOF, AND PHARMACEUTICAL COMPOSITION COMPRISING SAME AS ACTIVE INGREDIENT” (Korea Research Institute of Chemical Technology, priority 2023, dated 2025).
Structures can show the parent of a compound that is named as a salt. Where two headings read alike, the source gives them in different places.

Columns and labels:
[1] = target: T1, Recombinant GST-TAG-MASTL (Homo sapiens, UniProt Q96GX5); assay: HTRF-based kinase assay (HTRF KinEASE assay kit); type: biochemical; details: for activity at 10 µM: read-out: MASTL activity (%) HTRF; for activity at 1 µM: compound 1 µM, read-out: MASTL activity (%) HTRF (1 µM)
T1 construct: GST; purchased Thermo Fisher Scientific
T1 sequence (Q96GX5 1-879): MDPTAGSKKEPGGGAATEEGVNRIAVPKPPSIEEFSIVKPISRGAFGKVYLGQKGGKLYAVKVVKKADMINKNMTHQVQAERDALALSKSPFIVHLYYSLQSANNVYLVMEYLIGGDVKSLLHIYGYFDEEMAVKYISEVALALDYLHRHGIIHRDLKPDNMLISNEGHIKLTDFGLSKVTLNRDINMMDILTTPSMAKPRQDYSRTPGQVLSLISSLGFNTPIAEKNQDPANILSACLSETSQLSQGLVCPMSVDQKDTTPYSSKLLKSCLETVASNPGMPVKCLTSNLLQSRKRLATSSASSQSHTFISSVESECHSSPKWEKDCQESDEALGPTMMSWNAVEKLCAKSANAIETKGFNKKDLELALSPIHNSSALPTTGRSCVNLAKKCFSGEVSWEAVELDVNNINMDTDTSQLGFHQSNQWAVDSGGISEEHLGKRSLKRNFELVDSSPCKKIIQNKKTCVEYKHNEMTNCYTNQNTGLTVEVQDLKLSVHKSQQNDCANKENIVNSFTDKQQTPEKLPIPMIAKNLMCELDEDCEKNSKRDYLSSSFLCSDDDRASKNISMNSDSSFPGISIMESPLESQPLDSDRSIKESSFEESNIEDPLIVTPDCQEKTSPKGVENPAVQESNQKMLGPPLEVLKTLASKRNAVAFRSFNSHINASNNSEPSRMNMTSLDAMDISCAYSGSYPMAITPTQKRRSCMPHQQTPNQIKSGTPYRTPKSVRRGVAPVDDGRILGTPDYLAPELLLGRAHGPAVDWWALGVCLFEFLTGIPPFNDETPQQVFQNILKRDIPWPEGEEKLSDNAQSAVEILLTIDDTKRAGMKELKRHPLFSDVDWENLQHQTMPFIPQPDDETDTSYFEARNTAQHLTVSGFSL
Description: Recombinant GST-TAG-MASTL (Thermo Fisher Scientific, MA, USA) was used for HTRF-based kinase assays. The HTRF KinEASE assay kit (CisBio, MA, USA) was used according to the manufacturer's instructions.

[2] = test system: MCF10A normal breast cell lines; assay: Cell viability analysis, WST-8 assay, MCF10A; details: Homo sapiens, MCF-10A, 72 h
Description: (§1) MCF7 breast cancer cell lines and MCF10A normal breast cancer cell lines were treated with serial dilutions of the compounds of the present invention ranging from 1 µM to 15.63 nM for 72 hours. Cell viability was measured by the WST-8 assay (Cyto XTM cell viability assay kit; LPS solution, Daejeon, Korea) according to the manufacturer's instructions.

[3] = in vitro; details: human
Description: as §1

[4] = test system: pENSA; assay: pENSA level by immunofluorescence (described method: in vitro kinase analysis with GST-tag-MASTL and His-tag-ENSA); type: cell-based; details: for pENSA (%) Immunofluor ecense (1 µM): compound 1 µM
How it was run: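 In vitro kinase reaction using recombinant GST-tagged MASTL with His-tagged ENSA as substrate; phosphorylated ENSA (pENSA) serves as read-out of MASTL activity. Cell lines named: MCF7 breast cancer and MCF10A.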

[5] = test system: MCF7 breast cancer cell lines; assay: Cell viability analysis, WST-8 assay, MCF7; details: Homo sapiens, MCF7, 72 h; for viability at 1.25 µM: read-out: Cell viability (%) WST-8, MCF7, footnote a: concentration 1.25 µM, 72 hours; for viability at 1 µM: read-out: Cell viability (%) WST-8, MCF7 (1 µM), compound 1 µM, 72 hours
Description: as §1

[6] = HTRF, read-out: IC50(nM) MASTL activity
[7] = footnote b: concentration 10 µM
[8] = read-out: IC50 Cell viability (MCF10A)
[9] = read-out: IC50 Cell viability (MCF7)
[10] = read-out: IC50(nM) Cell viability (MCF10A)
[11] = read-out: IC50(nM) Cell viability (MCF7)
[12] = HTRF, unit µM, read-out: IC50 MASTL activity

| SMILES | IC50 [1, 6] [nM] | activity at 10 µM [1, 7] [%] | IC50 [2, 8] [nM] | viability at 1.25 µM [3] [%] | IC50 ([4]; read-out: IC50(nM) pENSA) [nM] | viability at 1.25 µM [5] [%] | IC50 [5, 9] [nM] | viability at 1.25 µM ([3]; mcf10a cells) [%] | pENSA (%) Immunofluor ecense (1 µM) [4] [%] | activity at 1 µM [1] [%] | IC50 [2, 10] [nM] | viability at 1 µM [3] [%] | IC50 ([4]; unit µM, read-out: IC50 pENSA) [nM] | viability at 1 µM [5] [%] | IC50 [5, 11] [nM] | IC50 [1] [nM] | activity at 10 µM [1] [%] | viability at 1 µM ([3]; mcf10a cells) [%] | IC50 [1, 12] [nM] |
| --- | --- | --- | --- | --- | --- | --- | --- | --- | --- | --- | --- | --- | --- | --- | --- | --- | --- | --- | --- |
| COc1ccc(CNc2nc(Nc3cc(C4CC4)[nH]n3)c3ccccc3n2)cc1 [compound 4cd, N^4-(5-cyclopropyl-1H-pyrazol-3-yl)-N^2-(4-methoxybenzyl)quinazoline-2,4-diamine] | 476 | 20.3 | 2700 | 83.9 | 543 | 83.8 | 2600 |  |  |  |  |  |  |  |  |  |  |  |  |
| c1ccc(CCNc2nc(Nc3cc(C4CC4)[nH]n3)c3ccccc3n2)cc1 [compound 4ce, N^4-(5-cyclopropyl-1H-pyrazol-3-yl)-N^2-phenethylquinazoline-2,4-diamine] | 692 | 14.1 | 3700 | 100 | 491 | 72.8 | 1500 |  |  |  |  |  |  |  |  |  |  |  |  |
| OCCNc1nc(Nc2cc(C3CC3)[nH]n2)c2ccccc2n1 [compound 4cf, 2-((4-((5-cyclopropyl-1G-pyrazol-3-yl)amino)quinazolin-2-yl)amino)ethan-1-ol hydrochloride] | 893 | 23.7 | 1200 |  | 423 | 87 | 1800 | 56.4 | 17.4 |  |  |  |  |  |  |  |  |  |  |
| c1ccc2c(Nc3cc(C4CC4)[nH]n3)nc(Nc3cccc4[nH]ccc34)nc2c1 [compound 4da, N^4-(5-cyclopropyl-1H-pyrazol-3-yl)-N^2-(1H-indol-4-yl)quinazoline-2,4-diamine] | 309 |  |  |  |  |  |  |  |  | 58.5 | 683 | 18.9 | 1800 | 30.1 | 702 |  |  |  |  |
| c1ccc2c(Nc3cc(C4CC4)[nH]n3)nc(Nc3ccc4[nH]ccc4c3)nc2c1 [compound 4db, N^4-(5-cyclopropyl-1H-pyrazol-3-yl)-N^2-(1H-indol-5-yl)quinazoline-2,4-diamine] |  |  |  |  |  |  |  |  |  | 28.9 | 300 | 8.9 | 2100 | 3.2 | 221 |  |  |  |  |
| c1ccc2c(Nc3cc(C4CC4)[nH]n3)nc(Nc3ccc4cc[nH]c4c3)nc2c1 [compound 4dc, N^4-(5-cyclopropyl-1H-pyrazol-3-yl)-N^2-(1H-indol-6-yl)quinazoline-2,4-diamine] | 480 |  | 1300 |  |  |  |  |  |  | 22.1 |  | 54 | 2500 | 6.4 | 467 |  |  |  |  |
| c1ccc2c(Nc3cc(C4CC4)[nH]n3)nc(Nc3ccc4[nH]ncc4c3)nc2c1 [compound 4dd, N^4-(5-cyclopropyl-1H-pyrazol-3-yl)-N^2-(1H-indazol-5-yl)quinazoline-2,4-diamine] | 157 |  |  |  |  |  |  |  |  | 17.9 | 107 | 3.7 | 1500 | 12.9 | 317 |  |  |  |  |
| CNS(=O)(=O)c1ccc(Nc2nc(Nc3cc(C4CC4)[nH]n3)c3ccccc3n2)cc1 [compound 4h, 4-((4-((5-cyclopropyl-1G-pyrazol-3-yl)amino)quinazolin-2-yl)amino)-M-methylbenzenesulfonamide] | 843 | 17.6 |  |  | 408 | 41.8 |  | 4.7 | 17.1 |  | 57.2 |  |  |  | 758 |  |  |  |  |
| O=S(=O)(NCCO)c1ccc(Nc2nc(Nc3cc(C4CC4)[nH]n3)c3ccccc3n2)cc1 [compound 4i, 4-((4-((5-cyclopropyl-1G-pyrazol-3-yl)amino)quinazolin-2-yl)amino)-M-(2-hydroxyethyl)benzenesulfonamide] |  |  |  |  | 378 | 45.9 | 1100 | 5.8 | 16 |  | 132 |  |  |  |  | 1200 | 8.7 |  |  |
| c1ccc2c(Nc3cc(C4CC4)[nH]n3)nc(Nc3cc(C4CC4)[nH]n3)nc2c1 [compound 4n, M^2,M^4-bis(5-cyclopropyl-1G-pyrazol-3-yl)quinazoline-2,4-diamine] |  |  |  |  |  |  |  |  | 92.8 | 106 | 116 |  |  | 21.5 | 287 |  |  | 3.2 |  |
| O=C(O)Cc1ccc(Nc2nc(Nc3cc(C4CC4)[nH]n3)c3ccccc3n2)cc1 [compound 4s, 2-(4-((4-((5-cyclopropyl-1G-pyrazol-3-yl)amino)quinazolin-2-yl)amino)phenyl)acetic acid] |  |  |  |  | 89.1 |  |  |  | 89.1 | 56.2 | 113 |  |  | 102 | 102 |  |  | 113 |  |
| NC(=O)c1ccc(Nc2nc(Nc3cc(C4CC4)[nH]n3)c3ccccc3n2)cc1 [compound 4t, 4-((4-((5-cyclopropyl-1G-pyrazol-3-yl)amino)quinazolin-2-yl)amino)benzamide] | 198 |  |  |  | 341 |  |  |  | 0.9 | 14.9 | 226 |  |  | 2.7 | 324 |  |  | 18.4 |  |
| NC(=O)Cc1ccc(Nc2nc(Nc3cc(C4CC4)[nH]n3)c3ccccc3n2)cc1 [compound 4u, 2-(4-((4-((5-cyclopropyl-1G-pyrazol-3-yl)amino)quinazolin-2-yl)amino)phenyl)acetamide] | 392 |  |  |  |  |  |  |  | 41.2 | 30.5 | 718 |  |  | 64.8 |  |  |  | 25.5 |  |
| Nc1ccc(Nc2nc(Nc3cc(C4CC4)[nH]n3)c3ccccc3n2)cc1 [compound 4v, M^2-(4-aminophenyl)-M^4-(5-cyclopropyl-1G-pyrazol-3-yl)quinazoline-2,4-diamine] |  |  |  |  |  |  |  |  | 15.3 | 41.4 | 438 |  |  | 32.8 | 390 |  |  | 34.1 | 1500 |
| CC(C)(C)OC(=O)NCCNC(=O)c1ccc(Nc2nc(Nc3cc(C4CC4)[nH]n3)c3ccccc3n2)cc1 [compound 4w, sdqs-butyl (2-(4-((4-((5-cyclopropyl-1G-pyrazol-3-yl)amino)quinazolin-2-yl)amino)benzamido)ethyl)carbamate] |  |  |  |  |  |  | 1800 |  | 135 | 48.5 | 908 |  |  | 72 |  |  |  | 63.4 | 1300 |
| c1ccc2c(Nc3cc(C4CC4)[nH]n3)nc(N3CCC4(CC3)OCCO4)nc2c1 [compound 6a, M-(5-cyclopropyl-1G-pyrazol-3-yl)-2-(1,4-dioxa-8-azaspiro[4.5]decan-8-yl)quinazolin-4-amine] | 340 |  |  |  | 532 |  |  |  | 10.1 | 15.2 | 392 |  |  | 13.2 | 499 |  |  | 20.9 |  |
| Cc1ccc(C2=CCN(c3nc(Nc4cc(C5CC5)[nH]n4)c4ccccc4n3)CC2)c(C)c1 [compound 6j, M-(5-cyclopropyl-1G-pyrazol-3-yl)-2-(4-(2,4-dimethylphenyl)-3,6-dihydropyridin-1(2G)-yl)quinazolin-4-amine] |  |  |  |  |  |  |  |  | 97.4 | 80 | 566 |  |  | 45.6 | 674 |  |  | 33.1 |  |
